In patent publication US20040018606A1, “Control of protein systemic delivery by hypoxia using a tet-HIF1-alpha chimeric transactivator” (priority 2002, published 2004):

System: tetO-CMV promoter
Assay: Luciferase activity in electroporated HeLa-16 cells treated with desferrioxamine, cobaltous chloride or 2-2′-dipyridyl
Type: cell-based
Conditions: HeLa-16 cells electroporated with pTHV, 24 hours
Protocol: HeLa cells were maintained in Dulbecco Modified Medium with Glutamax (Gibco) supplemented with 10% fetal calf serum. For transfection, 5×10e6 HeLa cells were electroporated with a Gene Pulser (Biorad) at 200 V, 960 microfarads in the presence of 25 μg of each plasmid, NaCl 3M in 50 microliters. For control experiments a Bluescript pBSK+ was electroporated instead of the plasmid of interest. Each suspension of cells was then split in aliquots and incubated either in medium alone or in medium supplemented with doxycycline (1 μg/ml), cobaltous chloride (100 μM), desferrioxamine (Def) (130 μM), 2-2′-dipyridyl (DP) (100 μM) or the MG132 proteasome inhibiteur (2.5 μM). For hypoxic conditions cells were placed at 37° C. in a closed chamber with 1% oxygen, 5% CO2 and 94% N2 (Air Liquide).
Electroporated cells were trypsinized and the pellet was lysed in 200 μl LB buffer (Tris Phosphate pH 7.8 25 mM, MgCl2 8 mM, dithiothreitol 1 mM, Triton×100 1%, glycerol 15%). The lysat was then centrifugated at 4° C., the supernatant was collected and luciferase activity was measured using a luminometer (Lumat LB 9501, Berthold). Results were expressed as relative luciferase activity per mg of cell lysates protein. Protein concentration determination was performed with the BCA Protein Assay Kit (Pierce).
The reporter plasmid encoded for a luciferase gene inserted downstream of a minimal CMV promoter that contains seven binding sites for the E.Coli tetracycline repressor (tetO-CMV)(20). HeLa cells were stably transfected with this vector and one clone named HeLa-16 was used in all transient transfection assays.
HeLa-16 cells were electroporated with each pTHV or pTV. After electroporation cells were split into aliquots, and exposed in parallel to 21% O2, 1% O2, 2,2′-dipyridyl (DP), desferrioxamine (Def), cobaltous chloride (Co) or MG132. Luciferase activities were measured 24 hours later and normalised as RLU (relative light unit) per mg of proteins.

SMILES | effectiveness of the chemical in inducing transactivation by pTHV
[Cl-].[Cl-].[Co+2] [cobalt, cobaltous chloride] | lower than with DP
CC(=O)N(O)CCCCCNC(=O)CCC(=O)N(O)CCCCCNC(=O)CCC(=O)N(O)CCCCCN [desferrioxamine] | lower than with DP
c1ccc(-c2ccccn2)nc1 [DP, 2-2′-dipyridyl] | most effective
